Structures can show the parent of a compound that is named as a salt. Where two headings read alike, the source gives them in different places.
Legend:
Format in all cases: biochemical
[1] = molecular target: T1, Recombinant Human Anaplastic Lymphoma Kinase (Homo sapiens, UniProt Q9UM73); assay: ALK HTRF kinase assay
T1 construct: purchased Invitrogen, Carlsbad, Calif
How it was run: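 TR-FRET read-out (Eu anti-pTyr antibody + streptavidin-APC) of biotin-peptide phosphorylation by recombinant human enzyme; IC50 by sigmoidal fit with top/bottom baselines and Hill slope.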

TYK2 = TYK2 (Homo sapiens, UniProt P29597); assay: TYK2 kinase inhibition (Table A1)
Sequence of TYK2 (P29597 whole entry): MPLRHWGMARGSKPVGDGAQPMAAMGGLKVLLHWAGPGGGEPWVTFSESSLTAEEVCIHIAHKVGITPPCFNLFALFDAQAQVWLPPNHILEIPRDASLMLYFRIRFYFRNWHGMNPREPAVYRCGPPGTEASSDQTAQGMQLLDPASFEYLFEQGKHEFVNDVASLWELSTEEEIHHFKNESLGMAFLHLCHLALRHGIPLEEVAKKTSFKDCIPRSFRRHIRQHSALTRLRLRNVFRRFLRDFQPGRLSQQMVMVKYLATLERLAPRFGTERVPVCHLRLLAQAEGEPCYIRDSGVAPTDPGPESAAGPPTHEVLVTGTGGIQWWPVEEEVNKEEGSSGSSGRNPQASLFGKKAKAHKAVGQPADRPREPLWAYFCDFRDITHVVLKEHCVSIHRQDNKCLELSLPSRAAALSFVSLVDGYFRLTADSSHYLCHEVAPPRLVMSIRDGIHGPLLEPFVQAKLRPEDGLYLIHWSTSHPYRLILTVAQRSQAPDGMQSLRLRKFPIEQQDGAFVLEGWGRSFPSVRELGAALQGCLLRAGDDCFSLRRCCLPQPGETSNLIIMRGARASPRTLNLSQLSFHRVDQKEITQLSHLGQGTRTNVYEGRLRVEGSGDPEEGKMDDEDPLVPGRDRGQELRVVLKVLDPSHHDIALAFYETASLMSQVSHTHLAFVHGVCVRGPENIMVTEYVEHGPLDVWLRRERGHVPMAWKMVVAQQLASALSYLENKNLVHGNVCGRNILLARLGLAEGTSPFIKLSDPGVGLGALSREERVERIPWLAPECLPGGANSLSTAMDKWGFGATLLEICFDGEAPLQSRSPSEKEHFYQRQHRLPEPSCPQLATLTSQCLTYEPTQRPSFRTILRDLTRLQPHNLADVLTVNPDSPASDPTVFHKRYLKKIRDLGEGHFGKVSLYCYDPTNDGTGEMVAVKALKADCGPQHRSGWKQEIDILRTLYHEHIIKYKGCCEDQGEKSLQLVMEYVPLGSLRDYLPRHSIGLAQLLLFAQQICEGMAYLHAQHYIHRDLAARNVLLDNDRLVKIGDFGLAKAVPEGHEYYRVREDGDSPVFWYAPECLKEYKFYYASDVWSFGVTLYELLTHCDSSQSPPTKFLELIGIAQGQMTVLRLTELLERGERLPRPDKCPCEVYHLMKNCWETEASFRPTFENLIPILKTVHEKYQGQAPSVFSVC

[2] = molecular target: T2, human JAK3 (a.a. 781-1124) (Homo sapiens, UniProt P52333); assay: In vitro JAK kinase assay (HTRF, phosphorylation of a biotinylated peptide), JAK3
T2 construct: JAK3 (a.a. 781-1124); His tag (N); made in house; host or cells: insect cells (baculovirus)
T2 sequence (P52333 781-1124): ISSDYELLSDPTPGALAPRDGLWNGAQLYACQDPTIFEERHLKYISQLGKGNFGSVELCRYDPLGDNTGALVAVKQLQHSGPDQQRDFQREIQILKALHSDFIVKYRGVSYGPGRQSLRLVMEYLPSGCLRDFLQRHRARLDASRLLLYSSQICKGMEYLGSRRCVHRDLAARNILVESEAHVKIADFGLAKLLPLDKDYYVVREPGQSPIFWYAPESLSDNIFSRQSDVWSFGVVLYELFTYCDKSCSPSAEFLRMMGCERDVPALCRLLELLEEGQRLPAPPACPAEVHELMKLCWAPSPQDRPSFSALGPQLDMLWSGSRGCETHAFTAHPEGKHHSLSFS
How it was run: (§1)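 Kinase activity was measured as phosphorylation of a biotinylated peptide, with ATP at 90 μM for JAK1, 30 μM for JAK2 and 3 μM for JAK3. Reactions ran 1 hr at room temperature, were stopped with EDTA plus SA-APC and Eu-Py20, and were read by HTRF after 40 minutes of antibody binding.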

[3] = molecular target: T3, human JAK2 (a.a. 828-1132) (Homo sapiens, UniProt O60674); assay: In vitro JAK kinase assay (HTRF, phosphorylation of a biotinylated peptide), JAK2
T3 construct: JAK2 (a.a. 828-1132); His tag (N); made in house; host or cells: insect cells (baculovirus)
T3 sequence (O60674 828-1132): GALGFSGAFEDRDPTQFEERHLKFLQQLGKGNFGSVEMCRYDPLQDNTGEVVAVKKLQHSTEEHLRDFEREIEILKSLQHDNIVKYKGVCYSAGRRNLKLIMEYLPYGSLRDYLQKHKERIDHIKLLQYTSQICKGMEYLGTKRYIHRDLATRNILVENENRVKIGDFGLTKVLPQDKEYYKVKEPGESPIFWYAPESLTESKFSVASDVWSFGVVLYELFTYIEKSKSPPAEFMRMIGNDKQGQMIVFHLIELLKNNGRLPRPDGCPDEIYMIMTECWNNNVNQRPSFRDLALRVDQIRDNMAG
How it was run: as §1

[4] = molecular target: T4, human JAK1 (a.a. 837-1142) (Homo sapiens, UniProt P23458); assay: In vitro JAK kinase assay (HTRF, phosphorylation of a biotinylated peptide), JAK1; settings: read-out: JAK1 IC50
T4 construct: human JAK1 (a.a. 837-1142); His tag (N); made in house; host or cells: insect cells (baculovirus)
T4 sequence (P23458 849-1154): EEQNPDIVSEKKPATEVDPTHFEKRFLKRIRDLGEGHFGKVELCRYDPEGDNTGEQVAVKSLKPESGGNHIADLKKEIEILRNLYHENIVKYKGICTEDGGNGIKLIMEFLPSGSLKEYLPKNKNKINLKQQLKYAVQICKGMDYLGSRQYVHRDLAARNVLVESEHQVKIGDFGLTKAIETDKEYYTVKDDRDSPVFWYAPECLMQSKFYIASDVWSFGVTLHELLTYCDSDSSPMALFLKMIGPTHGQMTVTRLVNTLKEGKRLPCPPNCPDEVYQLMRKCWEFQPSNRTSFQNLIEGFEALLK
How it was run: as §1

[5] = Table B1, cells without percent sign
[6] = compound at 500 nM or 1 mM, 90 μM ATP
[7] = method AA1 (3 μM ATP) or AA2 (1000 μM ATP), not stated per value
[8] = method AA1 (30 μM ATP) or AA2 (1000 μM ATP), not stated per value
[9] = method AA1 (90 μM ATP) or AA2 (1000 μM ATP), not stated per value
[10] = compound at a concentration of 500 nM or 1 mM (not specified), cells shown as percentage

T1 sequence (Q9UM73 19-1620): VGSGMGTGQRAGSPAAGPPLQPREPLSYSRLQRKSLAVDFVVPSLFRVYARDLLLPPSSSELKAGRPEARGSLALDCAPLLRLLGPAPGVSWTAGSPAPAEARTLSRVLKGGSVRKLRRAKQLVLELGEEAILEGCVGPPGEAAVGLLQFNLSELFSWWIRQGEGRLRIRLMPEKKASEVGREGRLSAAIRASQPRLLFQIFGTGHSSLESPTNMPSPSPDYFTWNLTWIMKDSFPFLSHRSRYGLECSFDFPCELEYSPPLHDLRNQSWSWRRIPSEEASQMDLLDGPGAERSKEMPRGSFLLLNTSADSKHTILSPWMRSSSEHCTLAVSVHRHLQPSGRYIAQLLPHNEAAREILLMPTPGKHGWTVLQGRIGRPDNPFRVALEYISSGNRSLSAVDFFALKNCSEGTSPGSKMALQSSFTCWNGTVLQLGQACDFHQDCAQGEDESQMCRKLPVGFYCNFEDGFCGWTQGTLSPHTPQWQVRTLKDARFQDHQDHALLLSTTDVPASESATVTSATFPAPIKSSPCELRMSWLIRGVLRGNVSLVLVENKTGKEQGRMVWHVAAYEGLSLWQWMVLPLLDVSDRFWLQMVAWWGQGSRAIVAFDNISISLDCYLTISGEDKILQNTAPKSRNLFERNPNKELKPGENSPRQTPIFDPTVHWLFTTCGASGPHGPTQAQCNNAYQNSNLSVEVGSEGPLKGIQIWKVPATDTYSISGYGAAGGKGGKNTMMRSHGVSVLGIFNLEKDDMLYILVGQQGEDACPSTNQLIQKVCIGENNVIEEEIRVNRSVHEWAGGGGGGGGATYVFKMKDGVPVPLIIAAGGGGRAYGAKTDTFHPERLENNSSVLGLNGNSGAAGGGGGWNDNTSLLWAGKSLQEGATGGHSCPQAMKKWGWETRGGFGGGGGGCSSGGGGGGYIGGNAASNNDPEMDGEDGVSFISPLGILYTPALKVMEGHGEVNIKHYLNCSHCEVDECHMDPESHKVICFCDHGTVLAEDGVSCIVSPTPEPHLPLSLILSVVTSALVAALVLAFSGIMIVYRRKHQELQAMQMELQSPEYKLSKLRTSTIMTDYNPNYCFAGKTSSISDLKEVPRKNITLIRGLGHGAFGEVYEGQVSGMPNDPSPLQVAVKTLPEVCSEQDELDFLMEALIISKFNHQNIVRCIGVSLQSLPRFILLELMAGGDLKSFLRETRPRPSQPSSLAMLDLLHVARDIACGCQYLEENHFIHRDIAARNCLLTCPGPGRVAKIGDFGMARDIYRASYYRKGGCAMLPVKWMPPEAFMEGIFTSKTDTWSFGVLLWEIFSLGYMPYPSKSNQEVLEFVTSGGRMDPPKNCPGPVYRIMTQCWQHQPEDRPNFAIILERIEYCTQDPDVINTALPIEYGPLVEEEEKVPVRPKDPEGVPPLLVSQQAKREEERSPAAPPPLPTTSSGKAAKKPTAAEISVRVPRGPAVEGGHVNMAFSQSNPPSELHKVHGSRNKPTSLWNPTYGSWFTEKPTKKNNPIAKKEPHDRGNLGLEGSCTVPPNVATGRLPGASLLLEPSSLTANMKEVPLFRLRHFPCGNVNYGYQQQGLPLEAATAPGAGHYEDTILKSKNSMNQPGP

IC50 (TYK2; Table B1) [nM] | IC50 ([2]; Table B1) [nM] | IC50 ([3]; Table B1) [nM] | IC50 ([4]; Table B1) [nM] | ALK % of inhibition at a concentration of 500 nM or 1 mM [1, 6] [%] | IC50 (TYK2) [nM] | IC50 [2, 7] [nM] | IC50 [3, 8] [nM] | IC50 [4, 9] [nM] | Compound | also measured
206 | 182 | 7.5 | 52 | – | – | – | – | – | CC(C)(C)NS(=O)(=O)c1cc2cc(c1)Nc1nc(ncc1Cl)Nc1cccc(c1)CC2 [Example B16, N-(tert-Butyl)-6-chloro-2,4,8,22-tetraazatetracyclo[14.3.1.1(3,7).1(9,13)]docosa-1(20),3(22),4,6,9(21),10,12,16,18-nonaene-11-sulfonamide trifluoroacetate] | IC50 [1, 5]: > 10000 nM
– | – | – | – | – | – | – | – | – | Clc1cnc2nc1Nc1cccc(c1)OCCNc1cccc(c1)N2 [Example D70, 6-Chloro-14-oxa-2,4,8,17,24-pentaazatetracyclo[16.3.1.1(3,7).1(9,13)]tetracosa-1(22),3(24),4,6,9(23),10,12,18,20-nonaene bis(trifluoroacetate)] | IC50 ([1]; Table D1, 90 μM ATP): 375 nM; IC50 (TYK2; Table D1): 5 nM; IC50 ([2]; Table D1): 8.1 nM; IC50 ([3]; Table D1): 2.1 nM; IC50 ([4]; Table D1): 9 nM
– | – | – | – | 26 | 12 | 9.1 | 5.6 | 7 | O=C(Nc1ccc2cc1CCc1cccc(c1)Nc1ncc(Cl)c(n1)N2)C1CCCN(C(=O)NC2CCCC2)C1 (stereo not shown) [Example A62, N(3)-[6-Chloro-2,4,8,22-tetraazatetracyclo[14.3.1.1(3,7).1(9,13)]docosa-1(20),3(22),4,6,9(21),10,12,16,18-nonaen-12-yl]-N(1)-cyclopentylpiperidine-1,3-dicarboxamide trifluoroacetate] | –
15 | 67 | 3.5 | 9.2 | – | – | – | – | – | Brc1cnc2nc1Nc1cccc(c1)CCc1cccc(c1)N2 [Example B3, 6-Bromo-2,4,8,22-tetraazatetracyclo[14.3.1.1(3,7).1(9,13)]docosa-1(20),3(22),4,6,9(21),10,12,16,18-nonaene trifluoroacetate] | IC50 [1, 5]: 976 nM
– | – | – | – | 15 | 59 | 350 | 64 | 31 | CC(=O)N1CCN(CC(=O)Nc2ccc3cc2CCc2cncc(c2)Nc2ncc(Cl)c(n2)N3)CC1 [Example A127, 2-(4-Acetylpiperazin-1-yl)-N-[6-chloro-2,4,8,18,22-pentaazatetracyclo[14.3.1.1(3,7).1(9,13)]docosa-1(20),3(22),4,6,9(21),10,12,16,18-nonaen-12-yl]acetamide tris(trifluoroacetate)] | –
2.7 | 17 | 1.5 | 0.75 | – | – | – | – | – | COc1ccc(S(=O)(=O)Nc2ccc3cc2CCc2cccc(c2)Nc2ncc(Cl)c(n2)N3)cc1 [Example B156, N-[6-Chloro-2,4,8,22-tetraazatetracyclo[14.3.1.1(3,7).1(9,13)]docosa-1(20), 3(22),4,6,9(21),10,12,16,18-nonaen-12-yl]-4-methoxybenzenesulfonamide trifluoroacetate] | ALK % of inhibition at a concentration of 500 nM or 1 mM [1, 10]: 28%
– | – | – | – | – | – | – | – | – | COC(=O)c1cc2cc(c1)OCCSc1cccc(c1)Nc1nc(ncc1Cl)N2 [Example D43, Methyl 6-chloro-17-oxa-14-thia-2,4,8,24-tetraazatetracyclo[16.3.1.1(3,7).1(9,13)]tetracosa-1(22),3(24),4,6,9(23),10,12,18,20-nonaene-20-carboxylate trifluoroacetate] | IC50 ([1]; Table D1, 90 μM ATP): 390 nM; IC50 (TYK2; Table D1): 37 nM; IC50 ([2]; Table D1): 66 nM; IC50 ([3]; Table D1): 5.3 nM; IC50 ([4]; Table D1): 2.9 nM
67 | > 400 | 133 | 21 | – | – | – | – | – | O=C(Nc1ccc2cc1CCc1cncc(c1)Nc1ncc(Cl)c(n1)N2)N1CCN(c2ncccn2)CC1 [Example B309, N-[6-Chloro-2,4,8,18,22-pentaazatetracyclo[14.3.1.1(3,7).1(9,13)]docosa-1(20),3(22),4,6,9(21),10,12,16,18-nonaen-12-yl]-4-pyrimidin-2-ylpiperazine-1-carboxamide tris(trifluoroacetate)] | ALK % of inhibition at a concentration of 500 nM or 1 mM ([1]; percentage inhibition of the example compound at a concentration of 500 nM or 1 mM (not specified which)): 68%
1.6 | 2.6 | 19 | 9.2 | – | – | – | – | – | O=C(Nc1nc[nH]n1)Nc1ccc2cc1CCc1cccc(c1)Nc1ncc(Cl)c(n1)N2 [Example B244, N-[6-Chloro-2,4,8,22-tetraazatetracyclo[14.3.1.1(3,7).1(9,13)]docosa-1(20),3(22),4,6,9(21),10,12,16,18-nonaen-12-yl]-N′-1H-1,2,4-triazol-3-ylurea trifluoroacetate] | ALK % of inhibition at a concentration of 500 nM or 1 mM [1, 10]: 63%
– | – | – | – | 28 | 237 | > 1000 | 199 | 11 | O=C(CC1CCN(c2ncccn2)CC1)Nc1ccc2cc1CCc1cncc(c1)Nc1ncc(Cl)c(n1)N2 [Example A172, N-[6-Chloro-2,4,8,18,22-pentaazatetracyclo[14.3.1.1(3,7).1(9,13)]docosa-1(20),3(22),4,6,9(21),10,12,16,18-nonaen-12-yl]-2-(1-pyrimidin-2-ylpiperidin-4-yl)acetamide tris(trifluoroacetate)] | –
15 | 50 | 7 | 2 | – | – | – | – | – | O=C(Nc1ccc2cc1CCc1cccc(c1)Nc1ncc(Cl)c(n1)N2)N[C@H]1CCN(C(=O)c2ccno2)C1 [Example B230, N-[6-Chloro-2,4,8,22-tetraazatetracyclo[14.3.1.1(3,7).1(9,13)]docosa-1(20),3(22),4,6,9(21),10,12,16,18-nonaen-12-yl]-N′-[(3S)-1-(isoxazol-5-ylcarbonyl)pyrrolidin-3-yl]urea trifluoroacetate] | ALK % of inhibition at a concentration of 500 nM or 1 mM [1, 10]: 11%
28 | 36 | 12 | 7.4 | – | – | – | – | – | CC(C)(C)OC(=O)N1CC[C@H](NCc2ccc3cc2CCc2cccc(c2)Nc2ncc(Cl)c(n2)N3)C1 [Example B220, tert-Butyl (3S)-3-({[6-chloro-2,4,8,22-tetraazatetracyclo[14.3.1.1(3,7).1(9,13)]docosa-1(20),3(22),4,6,9(21),10,12,16,18-nonaen-12-yl]methyl}amino)pyrrolidine-1-carboxylate bis(trifluoroacetate)] | ALK % of inhibition at a concentration of 500 nM or 1 mM [1, 10]: 25%
3.6 | 9.7 | 2.3 | 2.5 | – | – | – | – | – | Cc1cccc(C(=O)Nc2ccc3cc2CCc2cccc(c2)Nc2ncc(Cl)c(n2)N3)c1 [Example B46, N-[6-Chloro-2,4,8,22-tetraazatetracyclo[14.3.1.1(3,7).1(9,13)]docosa-1(20), 3(22),4,6,9(21),10,12,16,18-nonaen-12-yl]-3-methylbenzamide trifluoroacetate] | IC50 [1, 5]: 330 nM
1.2 | 1.7 | 0.53 | 0.56 | – | – | – | – | – | O=C(Nc1ccc2cc1CCc1cccc(c1)Nc1ncc(Cl)c(n1)N2)c1cnn2ccccc12 [Example B80, N-[6-Chloro-2,4,8,22-tetraazatetracyclo[14.3.1.1(3,7).1(9,13)]docosa-1(20),3(22),4,6,9(21),10,12,16,18-nonaen-12-yl]pyrazolo[1,5-a]pyridine-3-carboxamide bis(trifluoroacetate)] | ALK % of inhibition at a concentration of 500 nM or 1 mM [1, 10]: 73%
– | – | – | – | 36 | > 400 | > 400 | 180 | 7.2 | Cc1ccccc1S(=O)(=O)N1CCC(CC(=O)Nc2ccc3cc2CCc2cncc(c2)Nc2ncc(Cl)c(n2)N3)CC1 [Example A225, N-[6-Chloro-2,4,8,18,22-pentaazatetracyclo[14.3.1.1(3,7).1(9,13)]docosa-1(20),3(22),4,6,9(21),10,12,16,18-nonaen-12-yl]-2-{1-[(2-methylphenyl)sulfonyl]piperidin-4-yl}acetamide bis(trifluoroacetate)] | –
– | – | – | – | 27 | 3.4 | 178 | 7.6 | 1.1 | O=C(CC1CCN(C(=O)c2ncco2)CC1)Nc1ccc2cc1CCc1cncc(c1)Nc1ncc(Cl)c(n1)N2 [Example A139, N-[6-Chloro-2,4,8,18,22-pentaazatetracyclo[14.3.1.1(3,7).1(9,13)]docosa-1(20),3(22),4,6,9(21),10,12,16,18-nonaen-12-yl]-2-[1-(1,3-oxazol-2-ylcarbonyl)piperidin-4-yl]acetamide bis(trifluoroacetate)] | –
– | – | – | – | 32 | 48 | 36 | 4.8 | 1 | O=C(Nc1ccc2cc1CCc1cccc(c1)Nc1ncc(Cl)c(n1)N2)C1CCN(C(=S)Nc2ccccc2)CC1 [Example A43, 1-(Anilinocarbonothioyl)-N-[6-chloro-2,4,8,22-tetraazatetracyclo[14.3.1.1(3,7).1(9,13)]docosa-1(20),3(22),4,6,9(21),10,12,16,18-nonaen-12-yl]piperidine-4-carboxamide trifluoroacetate] | –

Reference: patent US8871753B2, “Macrocyclic compounds and their use as kinase inhibitors” (Incyte Corporation, priority 2008, dated 2014)
